From US20250154212A1, “METHOD OF DISRUPTING MEMORY AND LIPOPEPTIDE FOR USE IN SUCH METHOD” (The Research Foundation for The State University of New York, priority 2023, published 2025)
“Also recorded” adds a separate entry of the source. Where no end group is shown, it is not given here. The star is where a group is joined. Myristoyl = CCCCCCCCCCCCCC(=O)*

Tested on: spatial long-term memory in PKMζ-null mice
Assay: Active place avoidance, intrahippocampal injection, PKMζ-null mice
Assay type: in vivo, mouse
Settings: 5 nmol in 0.5 μl per hippocampus 1 day after conditioning, tested 2 days post-injection
Procedure: For spatial long-term memory experiments, we adapted the approach used in Garcia-Osta et al. (82). Mice were ˜12-weeks old at surgery. Briefly, to implant the injection cannula hardware, mice were anesthetized by an intraperitoneal (i.p.) injection of a mixture of dexmedetomidine ([…] body weight) and ketamine (28 mg/kg body weight), and mounted in a Kopf stereotaxic frame (Tujunga, CA). The tips of guide cannula (Plastics One, Roanoke, VA; Part Numbers: C235GS-5-2.0) were targeted above the injection target in the dorsal hippocampus (AP-1.94 mm; ML±1.00 mm; DV-0.90 mm). The other injection hardware (Part Numbers: C235DCs-5, 303DC/1; cannula dummy, cannula cap, respectively) was assembled, and antisedan (0.65 mg/kg body weight i.p.) was administered to reverse the sedation at the end of surgery.
Three to four weeks after surgery, the animals received active place avoidance training. […]
Active place avoidance was conducted with a commercial computer-controlled system (Bio-Signal Group, Acton, MA). […] Every 33 ms, the software determined the mouse's position, whether it was in the shock zone, and whether to deliver shock. […]
The tracked animal positions with timestamps were analyzed offline (TrackAnalysis, Bio-Signal Group, Acton, MA) to extract several end-point measures. […]

Compound | spatial memory retention (time to first enter shock zone), 3-day memory
O=S(=O)(O)c1cc(O)c2c(S(=O)(=O)O)cc(S(=O)(=O)O)cc2c1 [ζ-stat, 1-naphthol-3,6,8-trisulphonic acid] | avoided the shock zone as well as those that had received vehicle; also recorded: not different than vehicle
myr-N-FVRNSLERRSVRMKRPS-C (Myristoyl-FVRNSLERRSVRMKRPS) [K-ZAP] | has no effect on memory retention; also recorded: intact memory retention
